Reference: patent US20250333442A1, “NOVEL CELL-PERMEABLE PEPTIDE AND USE THEREOF” (AJOU UNIVERSITY INDUSTRY-ACADEMIC COOPERATION FOUNDATION, priority 2021, published 2025)

Key:
peritoneal macrophages = experiment: Peritoneal macrophage permeability by confocal microscopy; assay type: cell-based; details: 1 μg/mL fluorescent-labeled peptide, ICR mouse peritoneal macrophages, culture times 1, 4 and 24 hours
Method: To determine the cell permeability of F1 peptides, 1 μg/mL of fluorescent-labeled F1 and F2 peptides was treated to cultures of peritoneal macrophages isolated from 4-week-old ICR mice, followed by culture for 24 hours. Afterwards, intracellular fluorescence expression over culture times (1, 4 and 24 hours) was observed by confocal microscopy.

lymph node cells = experiment: Cell permeability via flow cytometry, lymph node cells; assay type: cell-based, mouse; details: for positive cell frequency (of entire cells): 1 μg/mL
Method: (§1) To determine whether the F1 peptide has entered the cell by penetrating the plasma membrane, splenocytes and lymph node cells were isolated from 4-week-old ICR mice, cultured for 1 hour, treated with 1 μg/mL of fluorescent-labeled F1 and F2 peptides, respectively, and then cultured for 48 hours. Flow cytometry was then used to analyze a frequency of fluorescent-labeled cells over culture time (1, 4, 24, and 48 hours) to determine the frequency of cells into which the peptide moved.

skin (epidermis) tissues = experiment: Skin tissue permeability by confocal microscopy; assay type: in vivo, mouse; details: for fluorescence expression in tissues: 1 μg/mL applied to mouse leg skin with cotton swab, cryosection; for difference in fluorescence expression with or without scratches: normal versus needle-scratched skin, 1 μg/mL, 1˜2 hours
Method: To identify the skin tissue permeability of the F1 peptide, the left leg of 4-week-old ICR mice was left unscratched, and the right leg was scratched with a needle. Afterwards, 1 μg/mL of fluorescent-labeled F1 and F2 peptides was applied to both legs with cotton swabs respectively, and after 1˜2 hours, skin (epidermis) tissues were collected, cryosectioned, and observed under confocal microscopy.

splenocytes [1] = experiment: Splenocyte permeability by confocal microscopy; assay type: cell-based; details: 1 μg/mL fluorescent-labeled peptide, ICR mouse splenocytes, culture times 1, 4 and 24 hours
Method: To determine the cell permeability of F1 peptides, 1 μg/mL of fluorescent-labeled F1 and F2 peptides were treated to cultures of splenocytes isolated from 4-week-old ICR mice, followed by culture for 24 hours. Afterwards, intracellular fluorescence expression over culture times (1, 4 and 24 hours) was observed by confocal microscopy. The untreated group with no peptide treatment involved was used as a control, alongside with a GFP peptide ([…]) treated group without cell permeability and a scramble D treated group (negative control).

splenocytes [2] = experiment: Cell permeability of peptides with SEQ ID NOS: 22 to 30 via flow cytometry; assay type: cell-based, mouse; details: splenocytes of 8-week-old ICR mice, 1 μg/mL, 24 and 48 hours
Method: To determine whether the F1 peptide enables penetration into cells even if a peptide without cell permeability is linked in the middle of any amino acid sequence, splenocytes were isolated from ICR 8-week-old mice and cultured for 1 hour. Afterwards, 1 μg/mL of fluorescent-labeled peptides (SEQ ID NOS: 22 to 30) was treated to cells respectively, followed by culture for 48 hours. Afterwards, flow cytometry was used to analyze the frequency of fluorescent-labeled cells over the culture time (24 and 48 hours) to determine the frequency of cells into which the peptide moved. […] A total of 4 mice were used, with the number of mice per experimental group (Group) set to 2 and the experiment repeated twice.

splenocytes [3] = experiment: Cell permeability via flow cytometry, splenocytes; assay type: cell-based, mouse; details: culture times 1, 4, 24 and 48 hours
Method: as §1

[4] = tissue collected after 1˜2 hours, confocal microscopy

Substance | intracellular fluorescence expression (peritoneal macrophages) | fluorescence expression in tissues (skin (epidermis) tissues; [4]) | difference in fluorescence expression with or without scratches (skin (epidermis) tissues) | intracellular fluorescence expression (splenocytes [1]) | also measured
GCCGEIV [Peptide F1] | showed fluorescence expression in peritoneal macrophages | showed fluorescence expression in tissues | no significant difference | showed fluorescence expression in splenocytes | positive cell frequency (of entire cells) (lymph node cells; over 4 hours): about 40%
GCCGEIVDDDDDDDD [Peptide F1D8] |  |  |  |  | degree of penetration of the D peptide into the cell compared with R8D control (splenocytes [2]): superior to that of the R8 peptide; penetration of the DDDDDDDD peptide inside the cell compared with cTATD control (splenocytes [2]): at a level similar to that of the cTAT peptide
GCDDDDDDDDCGEIV [Peptide F2] | showed fluorescence expression in peritoneal macrophages | showed fluorescence expression in tissues | no significant difference | showed fluorescence expression in splenocytes | positive cell frequency (of entire cells) (lymph node cells; over 48 hours): about 60%; fluorescence expression in hair follicles (skin (epidermis) tissues; 1 μg/mL applied to mouse leg skin, tissue collected after 1˜2 hours, confocal microscopy): strong fluorescence expression especially in hair follicles
HKFSVSGEGEGDATC [GFP peptide, GFP peptide without cell permeability, used as control, reference compound] |  |  |  |  | intracellular fluorescence expression (lymph node cells; culture times 1, 4, 24 and 48 hours): intracellular fluorescence expression was not observed; intracellular fluorescence expression (splenocytes [3]): intracellular fluorescence expression was not observed
